Numbering of substitutions follows the chain as printed.
Experiments:
[1] = system: healthy adipose derived mesenchymal stem cells; conditions: human, 72 h
Description: (§7) 7500 of HOSE, MSC, and OVCAR8 cells were plated on a 96-well plate and rested for 24 hours. They were then treated with incremental doses of 673 for 72 hours. They were then analyzed according to the Vybrant® MTT Cell Proliferation Assay Kit (Invitrogen).
(§8) The toxicity of these compounds versus normal human ovarian surface epithelial cells and healthy adipose derived mesenchymal stem cells was assayed.

[2] = system: pancreatic cancer cell lines and breast cancer cell lines (ASPC, PANC1, MCF7); test: MTT toxicity screen, pancreatic and breast cancer cell lines; assay type: cell-based
Description: A. MTT assay of cytotoxicity of indicated compounds at increasing doses 72 hours after treatment of ovarian cancer cell. B. MTT assay for pancreatic (ASPC and PANC1) and breast cancer (MCF7) cell lines. C. MTT assays of 673 for normal cells (HOSE and MSC) and ovarian cancer (OvCAR8) controls.
(§1) TD50 ranged from 12-50 uM.

UCP1 and UCP3 = test: qRT-PCR of necrosis associated genes; assay type: cell-based
Description: (§2) ALDH1A isoforms are the primary members of the ‘retinaldehyde’ subgroup of aldehyde dehydrogenases. Retinaldehydes play a primary role in the biosynthesis of retinoic acid and thereby regulate retinoic acid mediated transcription. Retinoic acid transcription changes in cells treated with UM673 were assayed. […] 80× induction of the mitochondrial uncoupling proteins UCP1 and UCP3 was observed (FIG. 7B).

[3] = system: cellular oxygen consumption; test: SeaHorse cellular metabolism studies; assay type: cell-based
Description: UCP1 and UCP3 proteins play a critical role in cellular metabolism. The impact of UM673 on cellular metabolism was evaluated.

OVCAR8 cells = test: Tumor sphere forming assay, OVCAR8; assay type: cell-based, human
Description: (§3) Tumor associated ascites cells were isolated by centrifugation and treated with ACK lysis buffer (Fischer Scientific). 5000 cells were placed in each well of the 6-well ultra-low adherence plates (Corning, Acton, Mass., USA) with 3 ml of supplemented MEBM (Lonza). After 24 hours, cells were treated with either media alone or UM #673. Media was added every 3-4 days, and all tumor sphere counts were done at 2 weeks. Alternatively, sphere assays were also performed with cancer cell lines A2780 and OVCAR8. Cells in culture were trypsinized and 2000 cells were either directly placed or FACS isolated for CD133+ and CD133− cells before plating in wells of ultra-low adherence plates. Images of spheres were photographed using the Olympus Microsuite Biological suite Software.
(§4) In order to further characterize UM #673 activity targeting OvCSC, a functional CSC assay was performed. Tumor sphere forming assays were performed with both FACS isolated CD133+A2780 cells and OVCAR8 cells (a cell line with >90% CD133 expression). […] This assay was repeated using primary human ovarian cancer associated ascites cell from three patients. Treatment with 673 was associated with an average of 7.3 fold (range 4-50) reduction in the number of spheres formed (FIG. 4A).

[4] = system: primary human ovarian cancer associated ascites cell; test: Tumor sphere forming assay, primary ascites cells; assay type: cell-based; conditions: three patients, range 4-50
Description: as §3, §4

[5] = system: FACS isolated CD133+A2780 cells; test: Tumor sphere forming assay, CD133+ A2780; assay type: cell-based, human; conditions: single treatment with 10 μM
Description: as §3, §4

mitochondrial metabolism = test: LCMS of cellular metabolites; assay type: cell-based
all the ALDH1A isoforms = test: In vitro enzymatic inhibition assays, text summary for ALDH1A isoforms; assay type: biochemical
[6] = system: Annexin-V staining (apoptosis); test: PI/Annexin-V FACS analysis; assay type: cell-based
Description: PI/Annexin-V FACS analysis of UM673 treated cells was performed to determine if cells were undergoing apoptosis.

[7] = system: normal human ovarian surface epithelial cells; conditions: 72 h
Description: as §7, §8

[8] = system: primary human tumor xenografts; test: Primary human tumor xenografts from chemotherapy refractory ovarian cancer; assay type: in vivo, mice
Text: In order to confirm in vivo activity against primary ovarian cancers, primary human tumor xenografts were generated from a patient with chemotherapy refractory ovarian cancer. Xenografts were allowed to grow until they reached ˜500 mm^3, and then treatment with either vehicle, cisplatin or cisplatin and UM 673 was initiated. […] After discontinuation of therapy, tumor regrowth was observed after approximately 4 weeks (FIG. 5D).

[9] = system: ovarian cancer cell lines including A2780, SKOV3, and OvCAR8; test: MTT assay, ovarian cancer cell lines; assay type: cell-based, human; conditions: 72 hours, range over cell lines
Description: as §1

[10] = system: isolated CD133+ cancer stem cells initiated tumors; test: CD133+ cancer stem cell initiated tumors, tumor growth; assay type: in vivo, mice; conditions: single agent
Description: (§5) 6-8 week old nude female mice were purchased from Charles River Laboratories. All xenograft experiments were performed with approval of the University Committee on Use and Care of Animals of the University of Michigan. To generate tumors, 7.5×10^4 unsorted A2780 cells or 7500 CD133+ sorted A2780 cells were combined with 100 μl of DPBS and 100 μl of Matrigel (BD Biosciences), and then implanted subcutaneously into bilateral axillae of each mouse. 3 days after inoculation with tumors, mice were given an intra-peritoneal injection of (1) control DMSO 40 μl, (2) Cisplatin 250 μg/ml, (3) UM #673 10 μM, or (4) Cisplatin plus UM #673 (n=9 mice per treatment group). Tumor growth was measured using calipers, and tumor volume was calculated based on the modified ellipsoid formula (L×W×W/2), where L is the length and W is the width of the tumor. The mice were euthanized when tumors reached 1.5 to 2 cm^3 and animal safety euthanasia guidelines were met. Intraperitoneal tumors were generated using 5×10^6 OVCAR8 in […] of PBS and injected I.P. 3 days after inoculation, mice were given intra-peritoneal injection of Cisplatin or Cisplatin plus UM #673.
The impact of UM673 as a single agent was evaluated. NOD/SCID mice were inoculated with 1×10^5 unsorted A2780 cells and treatment was initiated three days after tumor inoculation with either vehicle control or UM #673. […]

Oct4, and Sox2 = test: qRT-PCR of stem cell genes; assay type: cell-based
Description: as §2

ALDH+ cells = test: FACS isolated single cells in microfluidic culture, cell death; assay type: cell-based
Description: (§6) In order to determine if the loss of CD133 or ALDH expressing cells is due to downregulation/loss of enzyme function or due to cell death, FACS isolated CD133+ or ALDH+ cells were treated as single cells in microfluidic culture. 673 treatment was associated with the death of ˜93% of CD133+ cells and 65% death of ALDH+ cells (FIG. 1B).

CD133+ cells = test: as above; assay type: cell-based
Description: as §6

[11] = system: A2780 tumor cell xenografts; test: A2780 tumor cell xenografts, tumor growth; assay type: in vivo, mice; conditions: unsorted A2780 cells, treatment from day 3
Description: as §5
The impact of UM673 as a single agent was evaluated. NOD/SCID mice were inoculated with 1×10^5 unsorted A2780 cells and treatment was initiated three days after tumor inoculation with either vehicle control or UM #673. […] This is consistent with other studies of CSC targeting agents.
The experiments were repeated in combination with cisplatin. In addition, xenografts from both whole cell line and FACS isolated CD133+ cells were treated.

A2770 cells = test: FACS analysis of CD133 and ALDH expressing cells; assay type: cell-based
[12] = system: in vitro treated, PI-/Annexin-FACS isolated live cells; test: Tumor initiation capacity of in vitro treated live cells injected into mice; assay type: in vivo
Description: An important functional aspect of a cancer stem cell is the ability to initiate tumors with limited cell numbers. In order to determine if UM673 could impact tumor initiation, cells were treated in vitro with a single dose of UM673 alone or in combination with cisplatin. Cells were allowed to recover for three days and then PI(−)/Annexin(−) live cells were faxed isolated and injected into mice. 200, 1000, or 5000 cells from each treatment group (n=4-10/group) were injected.

intracellular calcium = test: Fluorescent analysis of intra-cellular calcium; assay type: cell-based
Description: Programmed cell necrosis is known to be linked with decreases in cellular ATP and an increase in intracellular calcium. […] Furthermore, reduction in CD 133 positive cells with UM 673 treatment could be partially abrogated by the calcium scavenging compound BAPTA (FIG. 6E). As program cell necrosis is known to be activated via the RIP kinases, the impact of the RIP kinase inhibitor necrostatin was evaluated.

A2780 = test: MTT assay, A2780 viability; assay type: cell-based, human
Description: as §1

ALDH1A1 (WT) = biological target: T1, ALDH1A1 (WT) (Homo sapiens, UniProt P00352); test: In vitro enzymatic inhibition assay, ALDH1A1 (WT); assay type: biochemical; conditions: 2 min incub
T1 sequence (P00352 1-501): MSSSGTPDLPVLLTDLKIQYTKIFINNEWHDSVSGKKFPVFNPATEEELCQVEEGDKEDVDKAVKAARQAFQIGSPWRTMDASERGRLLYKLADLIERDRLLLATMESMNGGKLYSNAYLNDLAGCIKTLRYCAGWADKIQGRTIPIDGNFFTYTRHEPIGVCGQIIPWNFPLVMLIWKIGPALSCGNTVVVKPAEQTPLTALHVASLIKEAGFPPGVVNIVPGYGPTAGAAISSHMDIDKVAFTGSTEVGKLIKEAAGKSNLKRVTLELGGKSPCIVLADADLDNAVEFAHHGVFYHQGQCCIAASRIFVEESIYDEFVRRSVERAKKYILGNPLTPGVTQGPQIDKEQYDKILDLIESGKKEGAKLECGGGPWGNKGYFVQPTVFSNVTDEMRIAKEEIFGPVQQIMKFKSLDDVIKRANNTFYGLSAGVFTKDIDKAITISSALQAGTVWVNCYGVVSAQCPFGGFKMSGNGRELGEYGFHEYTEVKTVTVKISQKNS

ALDH1A3 = biological target: T2, ALDH1A3 (Homo sapiens, UniProt P47895); test: In vitro enzymatic inhibition assay, ALDH1A3; assay type: biochemical
T2 sequence (P47895 1-512): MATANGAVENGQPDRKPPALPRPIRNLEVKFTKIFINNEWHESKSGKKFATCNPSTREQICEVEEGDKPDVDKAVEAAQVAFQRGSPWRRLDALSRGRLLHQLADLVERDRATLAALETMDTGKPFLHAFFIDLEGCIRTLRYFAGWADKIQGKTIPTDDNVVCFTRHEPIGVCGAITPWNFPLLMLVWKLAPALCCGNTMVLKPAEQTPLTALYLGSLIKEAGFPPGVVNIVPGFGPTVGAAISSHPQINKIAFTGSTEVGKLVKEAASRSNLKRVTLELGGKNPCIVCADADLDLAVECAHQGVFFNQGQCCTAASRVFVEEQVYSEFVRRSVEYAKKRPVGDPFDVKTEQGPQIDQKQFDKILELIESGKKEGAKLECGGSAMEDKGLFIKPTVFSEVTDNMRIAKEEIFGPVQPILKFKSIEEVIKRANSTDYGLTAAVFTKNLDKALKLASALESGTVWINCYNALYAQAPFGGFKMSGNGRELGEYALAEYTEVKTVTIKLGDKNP

ALDH1A1 (S121) = biological target: T3, ALDH1A1 (S121) (Homo sapiens, UniProt P00352, N121S); test: In vitro enzymatic inhibition assay, ALDH1A1 (S121); assay type: biochemical
T3 sequence (P00352 1-501 N121S): T1 sequence (P00352 1-501) with N121S

ALDH3A1 = ALDH3A1 (Homo sapiens, UniProt P30838); test: In vitro enzymatic inhibition assay, ALDH3A1; assay type: biochemical
ALDH1A2 = biological target: T4, ALDH1A2 (Homo sapiens, UniProt O94788); test: In vitro enzymatic inhibition assay, ALDH1A2; assay type: biochemical
T4 sequence (O94788 1-518): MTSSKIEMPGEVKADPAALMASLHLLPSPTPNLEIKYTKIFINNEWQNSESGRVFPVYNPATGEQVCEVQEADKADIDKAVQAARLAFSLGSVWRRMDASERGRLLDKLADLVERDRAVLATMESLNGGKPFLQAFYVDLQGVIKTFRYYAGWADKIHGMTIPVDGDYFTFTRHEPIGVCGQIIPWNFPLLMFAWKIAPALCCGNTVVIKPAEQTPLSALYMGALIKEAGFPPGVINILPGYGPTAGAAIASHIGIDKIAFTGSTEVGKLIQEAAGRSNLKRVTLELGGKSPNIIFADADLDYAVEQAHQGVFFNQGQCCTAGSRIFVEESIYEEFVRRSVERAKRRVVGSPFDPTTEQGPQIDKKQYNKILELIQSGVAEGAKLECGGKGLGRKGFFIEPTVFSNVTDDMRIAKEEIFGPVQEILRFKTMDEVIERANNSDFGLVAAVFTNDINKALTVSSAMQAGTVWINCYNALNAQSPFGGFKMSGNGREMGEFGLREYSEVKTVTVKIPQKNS

Chain of ALDH3A1 (P30838 whole entry): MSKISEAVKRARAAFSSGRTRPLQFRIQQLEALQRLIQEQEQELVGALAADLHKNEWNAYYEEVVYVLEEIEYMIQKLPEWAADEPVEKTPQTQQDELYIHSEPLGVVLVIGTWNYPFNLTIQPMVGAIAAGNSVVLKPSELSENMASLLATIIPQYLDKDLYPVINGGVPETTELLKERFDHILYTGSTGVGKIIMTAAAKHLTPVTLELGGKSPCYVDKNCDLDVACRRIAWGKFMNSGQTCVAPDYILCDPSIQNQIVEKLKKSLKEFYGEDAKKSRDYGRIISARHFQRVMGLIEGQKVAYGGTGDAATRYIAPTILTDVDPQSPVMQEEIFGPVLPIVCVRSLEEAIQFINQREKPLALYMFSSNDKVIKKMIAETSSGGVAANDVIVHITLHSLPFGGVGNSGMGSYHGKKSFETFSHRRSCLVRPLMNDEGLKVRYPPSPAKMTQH

Cc1cc(N2Cc3ccccc3C2)ccc1C=O [UM673]
TD50 [1]: ~105 µM
cytotoxicity versus bulk populations [2]: variable modest cytotoxicity
induction of the mitochondrial uncoupling proteins UCP1 and UCP3 (UCP1 and UCP3): 80 ×
cellular oxygen consumption [3]: slow and steady decline
decrease in sphere formation (OVCAR8 cells): 5.6 fold
reduction total cell numbers (OVCAR8 cells): 3 fold
average reduction in the number of spheres formed [4]: 7.3 fold
decrease in sphere number [5]: 2.6 fold
reduction in total cell number [5]: ~8 fold
levels of citrate (mitochondrial metabolism): marked decrease
IC50 (all the ALDH1A isoforms): < 230 nM
Annexin-V staining [6]: not associated with an increase in Annexin-V staining
TD50 [7]: ~105 µM
time to tumor regrowth after discontinuation of therapy ([8]; mouse, in vivo): approximately 4 weeks
tumor growth ([8]; treatment started at ˜500 mm^3): prevented tumor regrowth
TD50 [9]: 12 to 50 µM
tumor growth [10]: Greatest activity
expression of stem cell factors Oct4 and Sox2 (Oct4, and Sox2): down regulated
death of ALDH+ cells (ALDH+ cells): 65%
death of CD133+ cells (CD133+ cells): ~93%
tumor growth [11]: statistically significant reduction in tumor growth
tumor growth ([11]; listed as UM 673): modest restrictions in tumor growth
loss of ALDH+ and CD133+ cells (A2770 cells): reductions in not only ALDH+ cells, but also CD133+ cells
tumor initiation (tumors/injections) ([12]; 200 cells injected): 2/4
tumor initiation (tumors/injections) ([12]; 1000 cells injected): 4/4
tumor initiation (tumors/injections) ([12]; 5000 cells injected): 4/5
effect on tumor initiation capacity ([12]; compared to untreated controls): neither cisplatin or UM673 affected tumor initiation
increase in intracellular calcium (intracellular calcium): fourfold increase
lowest dose with measurable effects on A2780 viability (A2780): 2.5 µM

DEAB [reference compound]
IC50 (ALDH1A1 (WT)): 519 ± 75 nM
IC50 (ALDH1A3): > 20000 nM
IC50 (ALDH1A1 (S121)): 1490 ± 240 nM
IC50 (ALDH3A1): > 20000 nM
IC50 (ALDH1A2): > 20000 nM

From patent US9468632B2, “Methods and compositions for targeting cancer stem cells” (The Regents of the University of Michigan, priority 2012, dated 2016)
